From US11925624B2, “Methods of administering anti-fibrotic therapy” (GENENTECH, INC., priority 2016, dated 2024)

Experiments:
[1] = Serum creatinine (Scr) change from baseline, MAD study (Part B); type: in vivo, human; conditions: for Number of subjects with change in Scr <0.3 mg/dL from baseline / Number of subjects with change in Scr ≥0.3 mg/dL from baseline / Number of subjects with percent change in Scr <30% from baseline / Number of subjects with percent change in Scr ≥30% from baseline: MAD
Experimental: (§1) In addition to the measurement of various PK parameters in both parts of the study, the changes in the subjects' serum creatinine levels were also evaluated in this study. Tables 6A and 6B summarize the change in level and percent change in serum creatinine from averaged screening and pre-dosing values for the subjects in SAD study in each treatment group, as applicable. Tables 7A and 7B summarize the change in level and percent change in scrum creatinine from averaged screening and pre-dosing values for the subjects in MAD study. […] In Part B of the study, 2 subjects (275 mg BID) experienced clinically significant TEAEs of increased creatinine on day 5. The mean change in serum creatinine from a combined screening and pre-dose baseline in the MAD part of the study is illustrated in FIG. 1. In addition, the mean change in creatinine level from combined screening and pre-dose level in the MAD part of the study is illustrated in FIG. 2.

[2] = Serum creatinine (Scr) change from baseline, SAD study (Part A); type: in vivo, human; conditions: for Number of subjects with change in Scr <0.3 mg/dL from baseline / Number of subjects with change in Scr ≥0.3 mg/dL from baseline / Number of subjects with percent change in Scr <30% from baseline / Number of subjects with percent change in Scr ≥30% from baseline: SAD
Experimental: as §1

Cn1cc(-c2cn(-c3ccc(OC(F)(F)F)cc3)c(=O)c3ncn(C)c23)cn1 [Compound I]
Subjects with mean change from baseline ≥0.3 mg/dL in Scr ([1]; MAD study, all subjects): 25% | Subjects with mean percent change from baseline ≥30% in Scr ([1]; MAD study, all subjects): 50% | Number of subjects with change in Scr <0.3 mg/dL from baseline ([1]; 400 mg (200 mg BID)): 5 | Number of subjects with change in Scr ≥0.3 mg/dL from baseline ([1]; 400 mg (200 mg BID)): 1 | Number of subjects with percent change in Scr <30% from baseline ([1]; 400 mg (200 mg BID)): 1 | Number of subjects with percent change in Scr ≥30% from baseline ([1]; 400 mg (200 mg BID)): 5 | Number of subjects with change in Scr <0.3 mg/dL from baseline ([1]; 525 mg): 5 | Number of subjects with change in Scr ≥0.3 mg/dL from baseline ([1]; 525 mg): 1 | Number of subjects with percent change in Scr <30% from baseline ([1]; 525 mg): 3 | Number of subjects with percent change in Scr ≥30% from baseline ([1]; 525 mg): 3 | Number of subjects with change in Scr <0.3 mg/dL from baseline ([1]; 550 mg (275 mg BID)): 2 | Number of subjects with change in Scr ≥0.3 mg/dL from baseline ([1]; 550 mg (275 mg BID)): 4 | Number of subjects with percent change in Scr <30% from baseline ([1]; 550 mg (275 mg BID)): 2 | Number of subjects with percent change in Scr ≥30% from baseline ([1]; 550 mg (275 mg BID)): 4 | Subjects with increases over the upper limit of normal (ULN) in serum creatinine ([1]; Part B (MAD), across all dose levels): about 56% | Subjects with clinically significant TEAEs of increased creatinine ([1]; Part B, 275 mg BID, day 5): 2 subjects | Exposures with increases over the upper limit of normal (ULN) in serum creatinine ([2]; Part A (SAD), exposures of doses of 200 mg or more): about 21% | Number of subjects with change in Scr <0.3 mg/dL from baseline ([2]; 25 mg): 6 | Number of subjects with change in Scr ≥0.3 mg/dL from baseline ([2]; 25 mg): 0 | Number of subjects with percent change in Scr <30% from baseline ([2]; 25 mg): 6 | Number of subjects with percent change in Scr ≥30% from baseline ([2]; 25 mg): 0 | Number of subjects with change in Scr <0.3 mg/dL from baseline ([2]; 75 mg): 6 | Number of subjects with change in Scr ≥0.3 mg/dL from baseline ([2]; 75 mg): 0 | Number of subjects with percent change in Scr <30% from baseline ([2]; 75 mg): 6 | Number of subjects with percent change in Scr ≥30% from baseline ([2]; 75 mg): 0 | Number of subjects with change in Scr <0.3 mg/dL from baseline ([2]; 200 mg): 6 | Number of subjects with change in Scr ≥0.3 mg/dL from baseline ([2]; 200 mg): 0 | Number of subjects with percent change in Scr <30% from baseline ([2]; 200 mg): 6 | Number of subjects with percent change in Scr ≥30% from baseline ([2]; 200 mg): 0 | Number of subjects with change in Scr <0.3 mg/dL from baseline ([2]; 400 mg Fasted): 10 | Number of subjects with change in Scr ≥0.3 mg/dL from baseline ([2]; 400 mg Fasted): 2 | Number of subjects with percent change in Scr <30% from baseline ([2]; 400 mg Fasted): 9 | Number of subjects with percent change in Scr ≥30% from baseline ([2]; 400 mg Fasted): 3 | Number of subjects with change in Scr <0.3 mg/dL from baseline ([2]; 800 mg Fasted): 5 | Number of subjects with change in Scr ≥0.3 mg/dL from baseline ([2]; 800 mg Fasted): 1 | Number of subjects with percent change in Scr <30% from baseline ([2]; 800 mg Fasted): 4 | Number of subjects with percent change in Scr ≥30% from baseline ([2]; 800 mg Fasted): 2 | Number of subjects with change in Scr <0.3 mg/dL from baseline ([2]; 1600 mg): 6 | Number of subjects with change in Scr ≥0.3 mg/dL from baseline ([2]; 1600 mg): 0 | Number of subjects with percent change in Scr <30% from baseline ([2]; 1600 mg): 6 | Number of subjects with percent change in Scr ≥30% from baseline ([2]; 1600 mg): 0
